Holding throughout (type): biochemical
One assay has as its target T1, HDAC3 (Homo sapiens, UniProt O15379).
T1 construct: recombinant, full-length HDAC protein (HDAC1 100 pg/ul, HDAC2 200 pg/ul, HDAC3 100 pg/ul); purchased BPS Biosciences, San Diego, Calif., USA
Put plainly: HDAC enzyme assay, HDAC3 (fluorogenic, 384-well). Particulars: for IC50: recombinant full-length HDAC3, 3 hours incubation, substrate MAZ1600 at Km. As to the method: (§1) The inhibitory effect of compounds on HDAC1-HDAC9 function was determined in vitro using an optimized homogenous assay performed in a 384-well plate format. […] Reactions were performed in assay buffer (50 mM HEPES, 100 mM KCl, 0.001% (v/v) Tween 20, 0.05% (w/v) bovine serum albumin, 200 μM TCEP, pH 7.4) and followed for fluorogenic release of 7-amino-4-methylcoumarin from substrate upon deacetylase and trypsin enzymatic activity. Trypsin was present at a final concentration of 50 nM (Worthington Biochemical Corporation). Fluorescence measurements were obtained approximately every 5 min using a multilabel plate reader and plate stacker (Envision, Perkin-Elmer). Data were analyzed on a plate-by-plate basis for the linear range of fluorescence overtime. The first derivative of data obtained from the plate capture corresponding to the mid-linear range was imported into analytical software (Spotfire DecisionSite and GraphPad Prism). Replicate experimental data from incubations with inhibitor were normalized to DMSO controls. IC50 is determined by logistic regression with unconstrained maximum and minimum values.

In the next assay the target is T2, HDAC1 (Homo sapiens, UniProt Q13547).
T2 construct: recombinant, full-length HDAC protein (HDAC1 100 pg/ul); purchased BPS Biosciences, San Diego, Calif., USA
Kind of assay: HDAC enzyme assay, HDAC1 (fluorogenic, 384-well). As to conditions: read-out: IC50 HDAC1 (Tables 4-23, isoform selectivity panel). As to the method:
as §1

A further assay addresses T3, HDAC2 (Homo sapiens, UniProt Q92769).
T3 construct: recombinant, full-length HDAC protein (HDAC1 100 pg/ul, HDAC2 200 pg/ul); purchased BPS Biosciences, San Diego, Calif., USA
Put plainly: HDAC enzyme assay, HDAC2 (fluorogenic, 384-well). As to conditions: read-out: IC50 HDAC2 (Tables 4-23, isoform selectivity panel). As to the method:
as §1

Where [1] appears, read: FIGS. 4A-4D, read-out: IC50 HDAC3 (Tables 4-23, isoform selectivity panel).
Where [2] appears, read: read-out: IC50 against HDAC3 (Table 3, data of FIG. 2).

Where two headings read alike, the source gives them in different places.

T3 sequence (Q92769 whole entry): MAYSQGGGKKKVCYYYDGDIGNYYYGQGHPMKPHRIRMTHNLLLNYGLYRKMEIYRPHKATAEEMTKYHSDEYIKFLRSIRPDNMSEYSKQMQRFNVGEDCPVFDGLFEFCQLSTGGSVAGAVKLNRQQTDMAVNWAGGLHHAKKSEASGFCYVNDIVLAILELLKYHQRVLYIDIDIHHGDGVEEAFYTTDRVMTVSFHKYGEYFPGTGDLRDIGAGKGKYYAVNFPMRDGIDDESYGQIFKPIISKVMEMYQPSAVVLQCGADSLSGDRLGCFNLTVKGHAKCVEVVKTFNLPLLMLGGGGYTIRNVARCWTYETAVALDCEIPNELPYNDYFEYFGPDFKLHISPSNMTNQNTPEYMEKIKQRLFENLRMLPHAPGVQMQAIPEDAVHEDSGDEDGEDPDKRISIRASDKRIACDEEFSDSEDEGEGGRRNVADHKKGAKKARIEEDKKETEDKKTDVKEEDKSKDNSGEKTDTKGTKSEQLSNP
T2 sequence (Q13547 whole entry): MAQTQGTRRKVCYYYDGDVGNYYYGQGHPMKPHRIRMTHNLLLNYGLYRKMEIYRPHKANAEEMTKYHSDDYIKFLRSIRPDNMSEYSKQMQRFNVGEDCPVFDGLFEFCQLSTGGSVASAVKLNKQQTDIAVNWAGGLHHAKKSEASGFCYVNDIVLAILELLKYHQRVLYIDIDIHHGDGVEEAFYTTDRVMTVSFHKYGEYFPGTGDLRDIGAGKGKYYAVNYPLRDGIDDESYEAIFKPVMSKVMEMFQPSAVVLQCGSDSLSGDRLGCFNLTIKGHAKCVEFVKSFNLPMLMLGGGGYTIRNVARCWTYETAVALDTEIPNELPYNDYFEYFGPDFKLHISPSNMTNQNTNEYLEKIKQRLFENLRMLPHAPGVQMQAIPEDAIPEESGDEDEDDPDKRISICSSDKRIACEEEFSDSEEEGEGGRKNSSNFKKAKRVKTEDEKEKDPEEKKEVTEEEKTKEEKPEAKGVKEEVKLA
T1 sequence (O15379 whole entry): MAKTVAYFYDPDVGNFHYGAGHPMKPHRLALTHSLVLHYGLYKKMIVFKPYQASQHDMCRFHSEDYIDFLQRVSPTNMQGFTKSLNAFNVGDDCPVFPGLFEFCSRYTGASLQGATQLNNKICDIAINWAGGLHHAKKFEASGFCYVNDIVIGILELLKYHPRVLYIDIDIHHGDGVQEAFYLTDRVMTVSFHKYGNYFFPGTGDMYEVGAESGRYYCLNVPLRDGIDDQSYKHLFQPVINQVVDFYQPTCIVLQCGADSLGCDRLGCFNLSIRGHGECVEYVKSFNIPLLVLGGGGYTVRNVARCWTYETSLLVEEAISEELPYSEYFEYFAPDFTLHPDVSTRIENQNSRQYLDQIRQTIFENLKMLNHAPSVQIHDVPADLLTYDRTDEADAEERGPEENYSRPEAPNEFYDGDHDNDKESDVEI
T1 sequence (Q9Y618 395-489 partner limits assumed): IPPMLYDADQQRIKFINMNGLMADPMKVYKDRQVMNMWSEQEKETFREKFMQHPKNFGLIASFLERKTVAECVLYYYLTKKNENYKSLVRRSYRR

Usually IC50 stands for the midpoint of a concentration-inhibition curve. For `Nc1cc(F)ccc1NC(=O)c1ccc(C(=O)Nc2cccc3ncccc23)cc1` (racemic) [DL-HDAC1], the concentration for half-maximal inhibition (IC50) at HDAC3 (setting [1]) came to 11100 nM; at HDAC3 (setting [2]), 10500 nM.
Turning to `Nc1cc(F)ccc1NC(=O)c1ccc(C(=O)Nc2ccc(Cl)c(C(F)(F)F)c2)cc1` (racemic) [DL-HDAC2], the IC50 on HDAC3 (setting [1]) and at HDAC3 (setting [2]) was 1330 nM each time.
As to `Nc1cc(F)ccc1NC(=O)c1ccc(C(=O)Nc2cccc3[nH]ccc23)cc1` (racemic) [DL-HDAC3], the half-inhibitory concentration (IC50) at HDAC1 stood at 1050 nM; at HDAC2, 490 nM; on HDAC3 (setting [1]), 230 nM; on HDAC3 (setting [2]), 230 nM.
Regarding `Nc1cc(F)ccc1NC(=O)c1ccc(C(=O)Nc2cccc3sccc23)cc1` (racemic) [DL-HDAC4], the 50% inhibitory concentration (IC50) at HDAC3 (setting [1]) worked out at 260 nM; on HDAC3 (setting [2]), 270 nM.
As to `Nc1cc(F)ccc1NC(=O)c1ccc(C(=O)Nc2ccc(N3CCOCC3)cc2)cc1` (racemic) [DL-HDAC5], the IC50 is 810 nM on HDAC1, 440 nM at HDAC2, 280 nM at HDAC3 (setting [1]) and 260 nM at HDAC3 (setting [2]).
As to `CC(NC(=O)c1ccc(C(=O)Nc2ccc(F)cc2N)cc1)c1ccccc1[N+](=O)[O-]` (racemic) [DL-HDAC8], the IC50 on HDAC1 came out at 1650 nM; on HDAC2 it was 660 nM; at HDAC3 (setting [1]) it was 420 nM; on HDAC3 (setting [2]) it was 410 nM.
Taken in the same sequence, the figures for `Nc1cc(F)ccc1NC(=O)c1ccc(C(=O)Nc2cccc3cnccc23)cc1` (racemic) [DL-HDAC9] were 1550 nM, 930 nM, 550 nM and 630 nM.
As for `Cc1cc(NC(=O)c2ccc(C(=O)Nc3ccc(F)cc3N)cc2)n[nH]1` (racemic) [DL-HDAC10], the IC50 at HDAC1 was 2070 nM; on HDAC2, 850 nM; at HDAC3 (setting [1]) it was 450 nM; at HDAC3 (setting [2]), 450 nM.
With `COc1cc(-c2ccccc2)ccc1NC(=O)c1ccc(C(=O)Nc2ccc(F)cc2N)cc1` (racemic) [DL-HDAC11], the IC50 turned out to be 36000 nM at HDAC1, 4690 nM on HDAC2, 8810 nM at HDAC3 (setting [1]) and 7770 nM on HDAC3 (setting [2]).
The corresponding values for `Nc1cc(F)ccc1NC(=O)c1ccc(C(=O)Nc2ccccc2)cc1` (racemic) [DL-HDAC12] are 600 nM, 360 nM, 270 nM and 270 nM.
`Nc1cc(F)ccc1NC(=O)c1ccc(C(=O)NCc2ccc(Br)cc2)cc1` (racemic) [DL-HDAC13]: the half-inhibitory concentration (IC50) at HDAC1 was 200 nM; on HDAC2, 94 nM; on HDAC3 (setting [1]) it was 120 nM; at HDAC3 (setting [2]), 120 nM.
Turning to `Nc1cc(F)ccc1NC(=O)c1ccc(C(=O)NCCCBr)cc1` (racemic) [DL-HDAC15], the IC50 at HDAC1 was determined as 3920 nM; on HDAC2 it was 1800 nM; on HDAC3 (setting [1]), 730 nM; on HDAC3 (setting [2]), 710 nM.
`Nc1cc(F)ccc1NC(=O)c1ccc(C(=O)NCC(F)(F)F)cc1` (racemic) [DL-HDAC16]: the IC50 is 2620 nM at HDAC1, 990 nM on HDAC2, 420 nM on HDAC3 (setting [1]) and 390 nM on HDAC3 (setting [2]).
Turning to `CC(=O)c1ccc(NC(=O)c2ccc(C(=O)Nc3ccc(F)cc3N)cc2)cc1` (racemic) [DL-HDAC17], the IC50 came out at 1220 nM on HDAC1, 220 nM on HDAC2, 170 nM on HDAC3 (setting [1]) and 150 nM at HDAC3 (setting [2]).
Take `Nc1cc(F)ccc1NC(=O)c1ccc(C(=O)NC2CCNCC2)cc1` (racemic) [DL-HDAC18]: the concentration for half-maximal inhibition (IC50) on HDAC1 came out at 3490 nM; at HDAC2 it was 880 nM; at HDAC3 (setting [1]), 560 nM; on HDAC3 (setting [2]), 530 nM.
For the compound `Nc1cc(F)ccc1NC(=O)c1ccc(C(=O)NCCCn2ccnc2)cc1` (racemic) [DL-HDAC19], the IC50 on HDAC1 was found to be 2790 nM; at HDAC2, 610 nM; on HDAC3 (setting [1]), 290 nM; on HDAC3 (setting [2]), 270 nM.
The corresponding values for `Nc1cc(F)ccc1NC(=O)c1ccc(C(=O)NCCc2cccnc2)cc1` (racemic) [DL-HDAC20] are 1730 nM, 590 nM, 330 nM and 290 nM.
As for `Nc1cc(F)ccc1NC(=O)c1ccc(C(=O)NCc2ccccn2)cc1` [LW3], on HDAC3 (HDAC inhibition assays, FIGS. 1A, 1B, 2, 3), the “Selectivity for HDAC3 over other HDAC isoforms” value is reported as “selectively inhibits HDAC3 over other HDAC isoforms”. Further, the IC50 on HDAC3 (setting [2]) is 390 nM.

The values are drawn from US20220227700A1, “HDAC3 CATALYTIC INHIBITOR DEVELOPMENT AND USES THEREOF” (DANA-FARBER CANCER INSTITUTE, INC., priority 2019, published 2022).
